Measured values taken from patent US7618986B2, “Method of treating latent tuberculosis” (priority 2006, dated 2009).
Values after ≈ are worked out from the molar mass of the structure shown. Structures can show the parent of a compound that is named as a salt. Where two headings read alike, the source gives them in different places.

Legend:
[1] = tested on: Mycobacterium tuberculosis H37Rv; test: Microplate Alamar Blue Assay (MABA), aerobic; assay type: cell-based
[2] = tested on: M. tuberculosis H37Rv; test: Hypoxic (anaerobic) clonogenic MBC assay, dormant H37Rv; assay type: cell-based; settings: for MBC: Mycobacterium tuberculosis
[3] = tested on: VERO cells; test: Cytotoxicity against VERO cells (MTT, 72 hours exposure); assay type: cell-based; settings: for IC50: Chlorocebus sabaeus, Vero, read-out: IC50 in VERO cells
[4] = Stability in human plasma; assay type: in vitro ADME
[5] = Toxicity (MTD, adverse effects) in mice; assay type: in vivo
Description: determination of MTD ([…], MTD) in vivo (C57BL/6 female mice, i.p. administration of single doses, 1 week duration); and
(§1) An oral MTD was not determined.

[6] = Toxicity study in rats; assay type: in vivo; settings: i.v. daily 16 mg/kg, female rats
[7] = Plasma concentration after administration to CD2F1 mice; assay type: in vivo
Description: as §1

[8] = Water solubility and stability of aqueous stock solutions; assay type: physicochemical; settings: for solubility in water: hydrochloride salt
Experimental: Commercially available 4,7-dichloroquinoline (1) first was converted to the 4-fluoro-derivative (2) by refluxing for 6 hours in DMSO with lyophilized potassium fluoride (KF) (1.5 eq) from a 5% aqueous solution.
HRMS (VG 70-250SE mass spectrometer): Calculated for C16H16ClN5O2 (free amine): m/z 345.0992. […] FAB (VG 70-250SE mass spectrometer). Calculated for C16H17ClN5O2 (M+): m/z 346.

[9] = Toxicity study in dogs; assay type: in vivo; settings: i.v. daily 10.95 mg/kg
[10] = tested on: Mycobacterium tuberculosis H37Rv; settings: MABA, 7H12 media, 90% reduction in fluorescence; cited from earlier work
[11] = tested on: M. tuberculosis H37Rv; settings: hypoxic MBC assay; cited from earlier work
[12] = in vivo, po, 600 mg; cited from earlier work
[13] = H37RV, pH 6.7, read-out: H37Rv MBC (hypoxic)
[14] = H37RV, present day anti-TB drugs as positive controls, read-out: H37Rv MBC (hypoxic assay)
[15] = dormant H37Rv cells, ranges depending on the assay (Table 2), read-out: MBC (minimum bactericidal concentration)
[16] = dormant H37Rv cells, ranges depending on the assay (Table 2)
[17] = present day anti-TB drugs as positive controls
[18] = pH 6.7, read-out: % Inh (aerobic)
[19] = H37RV, read-out: MBC (minimum bactericidal concentration)

Cc1nc(C(F)(F)F)nc(NCCCn2ccnc2[N+](=O)[O-])c1C [CF3PM]
inhibition at 6.25 µg/mL ([1]; aerobic conditions, 6.25 μg/mL, pH 6.7-6.8, read-out: % Inh (aerobic)): 23% | MBC [2, 13]: 7.01 to 25 µg/mL (≈ 20.4 to 72.6 µM)

CC[C@H]1OC(=O)[C@H](C)[C@@H](O[C@H]2C[C@@](C)(OC)[C@@H](O)[C@H](C)O2)[C@H](C)[C@@H](O[C@@H]2O[C@H](C)C[C@H](N(C)C)[C@H]2O)[C@](C)(OC)C[C@@H](C)C(=O)[C@H](C)[C@@H](O)[C@]1(C)O [Clarithromycin, clarithromycin]
MBC [2, 14]: > 312 µg/mL | MBC [2, 15]: > 312 µg/mL | MBC (minimum bactericidal concentration) [2, 16]: > 312.5 µg/mL

capreomycin
MBC (minimum bactericidal concentration) [2, 16]: 37.5 µg/mL | H37Rv MBC (hypoxic assay) [2, 17]: 37.5 µg/mL

[H]/N=C(/N)N[C@H]1[C@H](O)[C@@H](O)[C@H](O[C@@H]2O[C@@H](C)[C@](O)(C=O)[C@H]2O[C@@H]2O[C@@H](CO)[C@H](O)[C@@H](O)[C@@H]2NC)[C@@H](N/C(N)=N\[H])[C@@H]1O [Streptomycin, streptomycin]
MBC [2, 14]: 12.5 µg/mL (≈ 21.5 µM) | MBC [2, 15]: > 12.5 µg/mL | MBC (minimum bactericidal concentration) [2, 16]: > 12.5 µg/mL

O=[N+]([O-])c1nccn1CCCNc1ccnc2cc(Cl)ccc12 [NLCQ-1, 4-[3-(2-Nitro-1-imidazolyl)-propylamino]-7-chloroquinoline hydrochloride]
IC50 [3]: 147 µg/mL | inhibition at 6.25 µg/mL [1, 18]: 0% | stability in human plasma [4]: good stability in human plasma | MTD at 1 week ([5]; female, C57BL/6, mouse, in vivo, ip, single dose): 30 mg/kg | adverse effects ([5]; i.p. 30 mg/kg bolus or 45 mg/kg as 3 fractions of 15 mg/kg every two hours daily, mice): no adverse effects | MTD ([5]; mouse, in vivo, ip, multiple doses): ≥ 45 mg/kg | MBC [2, 13]: 3.1 µg/mL | MBC [2, 19]: 3.1 to 18.4 µg/mL | adverse effects [6]: no adverse effects | peak plasma concentration ([7]; i.p. injection of 10 mg/kg): 8.9 µg/mL | bioavailability ([7]; mouse, plasma, oral administration of 10 mg/kg): 29% | peak plasma concentration ([7]; oral administration of 10 mg/kg): 0.461 µg/mL | hydrophilicity (aqueous solubility) compared with PA-824 [8]: more hydrophilic | solubility in water [8]: soluble in water | adverse effects [9]: no adverse effects

O=[N+]([O-])c1cn2c(n1)OC[C@@H](OCc1ccc(OC(F)(F)F)cc1)C2 [PA-824]
IC50 ([3]; toxicity): > 640 µg/mL | SI, selectivity index (IC50/MBC) ([3]; VERO IC50 / MBC dormant H37Rv): >50-100 | IC50 in VERO cells ([3]; toxicity): >640 µg/mL | MBC [2, 19]: 6.4 to 12.8 µg/mL (≈ 17.8 to 35.6 µM)

O=[N+]([O-])c1nccn1CCCCNc1ccnc2cc(Cl)ccc12 [NLCQ-2, 4-[4-(2-nitro-1-imidazolyl)-butylamino]-7-chloroquinoline hydrochloride]
IC50 [3]: > 640 µg/mL | IC50 in VERO cells ([3]; toxicity, hydrochloride): >640 µg/mL | inhibition at 6.25 µg/mL [1, 18]: 0% | MBC [2, 13]: 6.25 µg/mL | MBC [2, 19]: 4.9 to 9.8 µg/mL | hydrophilicity (aqueous solubility) compared with PA-824 [8]: more hydrophilic | solubility in water [8]: soluble in water

NNC(=O)c1ccncc1 [Isoniazid, isoniazid]
expected MIC range (quality control) [10]: 0.025 to 0.1 µg/mL | MBC [2, 14]: > 100 µg/mL | MBC [2, 15]: > 100 µg/mL | MBC (minimum bactericidal concentration) [2, 16]: > 100 µg/mL

Cc1ncc([N+](=O)[O-])n1CCO [Metronidazole, metronidazole]
activity in hypoxic assay [11]: activity is observed only at very high concentrations

CN(C)c1ccc(O)c2c1C[C@H]1C[C@H]3[C@H](N(C)C)C(O)=C(C(N)=O)C(=O)[C@@]3(O)C(O)=C1C2=O [Minocyclin, minocyclin]
MBC (minimum bactericidal concentration) [2, 16]: >156.25 µg/mL | MBC (minimum bactericidal concentration) ([2]; dormant H37Rv cells, ranges depending on the assay (Table 2), listed as minocyclin): > 156.25 µg/mL | H37Rv MBC (hypoxic assay) [2, 17]: 156.25 µg/mL

CO[C@H]1/C=C/O[C@@]2(C)Oc3c(C)c(O)c4c(O)c(c(/C=N/N5CCN(C)CC5)c(O)c4c3C2=O)NC(=O)/C(C)=C\C=C\[C@H](C)[C@H](O)[C@@H](C)[C@@H](O)[C@@H](C)[C@H](OC(C)=O)[C@@H]1C [Rifampin, rifampin]
MBC [2, 14]: 2.5 µg/mL (≈ 3.04 µM) | MBC [2, 15]: 2.5 µg/mL (≈ 3.04 µM) | Cmax [12]: 8 µg/mL
